We go through three molecules from ChEMBL document CHEMBL2321756, “From a cytotoxic agent to the discovery of a novel antimalarial agent” (Bioorg Med Chem Lett, 2013).

As a reminder, the Papp A→B is the apparent permeability from the apical to the basolateral side of a cell layer. One may read the IC50 as the midpoint of a concentration-inhibition curve.

Data set [1] can be described thus: Apparent permeability across apical to basolateral side in human Caco2/TC7 cells after 2 hrs. It is filed as ADME, cell-based. To be noted: Caco-2.
In data set [2] the test system is Plasmodium falciparum. As to the kind of experiment: Antimalarial activity against Plasmodium falciparum C235 containing mdr1 transporter gene assessed as growth inhibition after 72 hrs by SYBR Green 1-based fluorescence assay. Type of data set: functional, organism-based. To be noted: C235, MDR1, 72 h.
A short description of data set [3]: Apparent permeability across apical to basolateral side in human Caco2/TC7 cells at 50 uM after 2 hrs. To be noted: Caco-2. Type of data set: ADME, cell-based. (Caco-2 monolayers are a common model of the intestinal barrier.)
In data set [4] the test system is Erythrocyte. Put plainly: Reduction of glutathione level in Wistar rat RBC at 25 ug/mL measured at 90 mins relative to untreated control. It is filed as functional. Further details: scale not given: the % may be the effect or the level left.
The nature of data set [5]: Drug uptake in Wistar rat RBC at 25 ug/mL. It is filed as ADME, cell-based. To be noted: erythrocyte.
Data set [6] deals with Erythrocyte. As to the kind of experiment: Reduction of glutathione level in Wistar rat RBC at 25 ug/mL measured at 5 mins relative to untreated control. It is filed as functional. Also noted: scale not given: the % may be the effect or the level left.
Data set [7] concerns Erythrocyte. As to the kind of experiment: Reduction of glutathione level in Wistar rat RBC at 25 ug/mL measured at 30 mins relative to untreated control. It is filed as functional. Further details: scale not given: the % may be the effect or the level left.
Data set [8] in a line: Metabolic stability in human Caco2/TC7 cells at 50 uM up to 2 hrs. It is filed as ADME, cell-based. To be noted: caco-2, 2 h.
Data set [9] concerns Erythrocyte. Put plainly: Reduction of glutathione level in Wistar rat RBC at 25 ug/mL measured at 15 mins relative to untreated control. Type of data set: functional. Further details: scale not given: the % may be the effect or the level left.
Data set [10] can be described thus: Drug uptake in Wistar rat RBC at 25 ug/mL up to 2 hrs. To be noted: erythrocyte. It is filed as ADME, cell-based.
Data set [11] concerns Erythrocyte. As to the kind of experiment: Reduction of glutathione level in Wistar rat RBC at 25 ug/mL measured at 120 mins relative to untreated control. It is filed as functional. Also noted: scale not given: the % may be the effect or the level left.
Data set [12] has as its system Plasmodium falciparum. As to the kind of experiment: Selectivity ratio of IC50 for Plasmodium falciparum C235 to IC50 for Plasmodium falciparum D6. It is filed as functional.
Data set [13] deals with Plasmodium falciparum. Put plainly: Antimalarial activity against Plasmodium falciparum D6 assessed as growth inhibition after 72 hrs by SYBR Green 1-based fluorescence assay. To be noted: D6, 72 h. Type of data set: functional, organism-based.
Data set [14] has as its system Erythrocyte. Put plainly: Reduction of glutathione level in Wistar rat RBC at 25 ug/mL measured at 60 mins relative to untreated control. Type of data set: functional. Also noted: scale not given: the % may be the effect or the level left.

With `COCCc1ccc(OCC(O)CNC(C)C)cc1` (stereo not given) [METOPROLOL], the Papp A→B at 2 h in data set [1] worked out at 29.9 ×10⁻⁶ cm/s.
In the case of `O[C@@H](c1cc(C(F)(F)F)nc2c(C(F)(F)F)cccc12)[C@H]1CCCCN1` [(S,R)-MEFLOQUINE], the IC50 in [2] was 50 nM.
As for `Cl.O=C1/C(=C/c2ccc(Cl)cc2)CN(C(=O)c2ccc(OCCN3CCOCC3)cc2)C/C1=C\c1ccc(Cl)cc1`, the Papp A→B at 2 h, 50 µM in data set [3] was found to be 1.2 ×10⁻⁶ cm/s. The IC50 amounted to 1970 nM in data set [2] and 600 nM in data set [13]. Moreover, the Activity in [4] is reported as 7.51%; in [6], 12.6%; in [7], 12.9%; in data set [9] it was 12.3%; in data set [11] it was 10.9%; in data set [14], 8.95%. The Drug uptake is 75% in data set [5] and 80% in data set [10]. Also, in data set [8], the Stability entry is “Stable”. The “Ratio IC50” value in data set [12] turned out to be 3.3.
